Test results taken from patent US12459940B2, “Oxazole compound as multi-targeted inhibitor of IRAK4 and BTK” (SHANGHAI FOSUN PHARMACEUTICAL INDUSTRIAL DEVELOPMENT CO., …, priority 2019, dated 2025).

Assays:
[1] = tested on: TNF-α production in THP-1 cells; assay: THP-1 cytological TNFa ELISA assay (LPS-stimulated); type: cell-based; settings: Homo sapiens, TNF-α in culture supernatant, 150 ng/mL LPS, 18 hours
Procedure: THP-1 human acute […] leukemia cells were purchased from ATCC (Cat #TIB-202) and cultured at 37° C. in 5% CO2 incubator. The composition of medium was RPMI1640 (Gibco, Cat #22400-105), and the supplementary compositions were 10% FBS (Gibco, Cat #10091148); 1% PenStrep (Gibco, Cat #15140); 0.05 mM 2-Mercaptoethanol (Sigma, Cat #M6250).
TNF-α Elisa kit was used to detect the content of TNF-α in cell culture supernatant samples. TNF-α was produced by stimulating THP-1 cells with 150 ng/mL LPS (Sigma, Cat #L6529).
THP-1 cells cultured normally at logarithmic growth stage were seeded in a 96-well plate (Corning #3599) at a certain concentration (1*10^5/100 μL) and then put into a cell incubator for incubation. After two hours, 16.7 μL of different concentrations of the compound to be tested (8*final concentration) were added and incubated in an incubator. After one hour, 16.7 μL of 1200 ng/mL LPS was added and incubated in an incubator. After 18 hours, the culture supernatant samples were collected by centrifugation, and the content of TNF-α could be detected by TNF-α Elisa kit. Finally, OD signals (OD450-OD570) were read on envision board reader.
The OD450-OD570 signal value was converted into a percentage inhibition rate. Inhibition rate %=(ZPE−sample)/(ZPE−HPE)*100.
“HPE” refers to the OD450-OD570 signal value of the control well without LPS stimulated cells, and “ZPE” refers to the OD450-OD570 signal value of the control well with LPS stimulated cells. The IC50 value of the compound was calculated by XLFit in the excel add-in. Y=Bottom+(Top−Bottom)/(1+(IC50/X)^HillSlope). Equation: […]

[2] = tested on: TMD8 human B-cell lymphoma cells; assay: TMD-8 cell proliferation inhibition (CellTiter-Glo); type: cell-based; settings: TMD8, 72 h, treated for 3 days
Procedure: TMD8 human B-cell lymphoma cells were cultured in a 37° C., 5% CO2 incubator. The composition of medium was RPMI1640 (GIBCO, Cat #22400-089); the supplementary compositions were 10% FBS (Hyclone, Cat #SH30084.03); 1% PenStrep (Thermo, Cat #SV30010).
The tumor cell lines OCI-LY10 and TMD8 were used to detect the effect of the compound on inhibiting tumor cell proliferation in vitro. The tumor cell line was cultured in a 37° C., 5% CO2 incubator according to the culture conditions shown, and passaged regularly, then the cells in the logarithmic growth phase were taken, counted, and spread in a 96-well plate (the cells in each well were adjusted to an appropriate concentration, a total of […] per well was added). After incubating overnight in a 37° C., 5% CO2 incubator, drugs with different concentration gradients (10 μL of drug solution was added) were added and treated for 3 days, then 50 μL of CellTiter-Glo working solution was added to each well, and the cell plate was wrapped with aluminum foil to avoid light. The culture plate was shaken on an orbital shaker for 2 minutes to induce cell lysis, and placed at room temperature for 10 minutes to stabilize the luminescence signal, then the luminescence signal was detected on the 2104 EnVision plate reader.
The Inhibition rate (IR) of the tested compound was calculated using the following formula: IR (%)=(1−(RLU compound−RLU blank control)/(RLU solvent control−RLU blank control))*100%.
The inhibition rates of different concentrations of the compounds were calculated in Excel, and then the inhibition curves were made by GraphPad Prism software and the related parameters were calculated, including the minimum inhibition rate, the maximum inhibition rate and IC50.

[3] = tested on: OCI-LY3 cell line; assay: OCI-LY3 cell proliferation inhibition (CTG); type: cell-based; settings: Homo sapiens, incubated for 72 hours
Procedure: The tumor cell line used in this experiment was provided by Nanjing Cobioer Biotechnology Co., Ltd. See Table 13 below for specific information.
The tumor cell lines OCI-LY3 were used to detect the effect of the compound on inhibiting tumor cell proliferation in vitro. The OCI-LY3 cell line was cultured in the corresponding medium at 37° C. and 5% CO2, and the logarithmic growth phase cells were used in the experimental plating. The cells were collected and centrifuged at 800 rpm for 5 minutes, and the culture medium was re-suspended and spread in a 96-well plate. After incubating overnight in a 37° C., 5% CO2 incubator, the cells with different concentration gradients (10 μL of prepared diluent of the tested compound) were incubated for 72 hours, and the cell culture plates were incubated with CTG reagent at room temperature and away from light for 30 minutes, and then recovered to room temperature. 100 μL/hole of CTG solution was added into the biosafety cabinet away from light, and the plate shaker was shaken and mixed evenly away from light for 2 minutes, and incubated at room temperature away from light for 10 minutes. The luminescence values were read and recorded using the Perkin Elmer Envision 2104 MuLtilabel Reader.
The results of luminescence values measured at each drug concentration were normalized with the luminescence values of the blank control group, and the ratio of this value to the DMSO group was taken as the cell inhibition rate (%). Using GraphPad software, the logarithm of drug concentration (log drug concentration) versus inhibition rate was plotted, and the software automatically fitted and calculated IC50 value and 95% confidence limit value by log (inhibitor) vs. normalized response algorithm of nonlinear regression.

[4] = tested on: human B-cell lymphoma OCI-LY10 cell subcutaneous xenograft tumor; assay: Human B-cell lymphoma OCI-LY10 cell subcutaneous xenograft tumor mouse model; type: in vivo
Procedure: The objective of the experiment was to study the efficacy of WX001 as the test drug on human B-cell lymphoma OCI-LY10 cell subcutaneous xenograft tumor in CB17 SCID mouse model.
OCI-LY10 human B-cell lymphoma cells were cultured in a 37° C., 5% CO2 incubator.
OCI-LY10 tumor cells were cultured and passaged, and 0.2 mL (1×10^7 cells) OCI-LY10 cells were subcutaneously inoculated on the right back of each […] (with Matrigel, volume ratio 1:1), and the group administration was started when the average tumor volume reached 167 mm^3. The health status and death of animals were monitored every day, and routine examinations included observing the effects of tumor growth and drug treatment on daily behaviors of animals, such as behavioral activities, food intake and water intake, weight change (weight was measured twice a week), tumor size (tumor volume was measured twice a week), appearance signs or other abnormal conditions.
The experimental index was to investigate whether the tumor growth was inhibited, delayed or cured. Including the measurement of tumor volume (TV), and the calculation of the compound's anti-tumor efficacy using TGI (%) or the relative tumor proliferation rate T/C (%).
TV=0.5a×b^2, a and b represented the long diameter and short diameter of the tumor, respectively.
T/C %=TRTV/CRTV×100% (TRTV: RTV in treatment group; CRTV: RTV in negative control group). Relative tumor volume (RTV) was calculated according to the results of tumor measurement, and the calculation formula was RTV=Vt/V0, wherein V0 was the average tumor volume measured at the time of group administration (i.e., d0), Vt was the average tumor volume at a certain measurement, and TRTV and CRTV were the data taken at the same day.

[5] = 50 mpk, 18 days after the start of administration, p<0.001

SMILES: Cc1cc(-c2nc(C(=O)Nc3cn4cc(CCC(C)(C)O)nc4cc3N3CCCCC3)co2)ccn1 [WX001]
- IC50 [1]: 124 nM
- IC50 [2]: 300 nM
- IC50 [3]: 1290 nM
- anti-tumor effect compared with the solvent control group ([4]; 50 mpk, 18 days): significant anti-tumor effect
- T/C value [4, 5]: 22%
- TGI value [4, 5]: 109%
- drug tolerance (body weight, abnormality) ([4]; OCI-LY10 xenograft mice, 18 days of administration): well tolerated
